Experimental data as given in patent US20030134859A1 (SANKYO COMPANY, LIMITED, priority 2000, published 2003).
Counter-ions that a name gives are not always drawn.

Tests used:
TNF-α production = assay: Inhibitory activity against cytokine (TNF-α) production in LPS-stimulated RAW264.7 cells; type: cell-based, mouse; settings: 1 μM test compound, LPS 10 ng/mL; for inhibition at 1 µM: Mus musculus
Outline: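 Mouse RAW264.7 macrophages (5,000 cells/well) stimulated with 10 ng/mL LPS (final) and treated with test compound at 1 μM final for 15 h at 37 °C. Supernatant mouse TNF-α measured by ELISA; % inhibition = 100−(A−B)/(C−B)×100, using unstimulated and LPS-only controls.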

Rat white adipocytes = assay: Inhibition of the differentiation of adipocytes (Oil Red O); type: cell-based; settings: 100 nM test compound, 5 days, Oil Red O ABS550, control = 100%, blank = 0%, Table 3; for activity at 0.1 µM: Rattus norvegicus, Adipocyte, 120 h, read-out: Rate of Differentiation (%)
Outline: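 Rat white preadipocytes, 5,000 cells/well, given differentiation medium with compound at 100 nM final (0.1% DMSO) for 5 days at 37 °C. Lipid stained with Oil Red O, eluted in DMSO, read at 550 nm; differentiation % relative to DMSO control (100%) and blank (0%).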

Row | SMILES | inhibition at 1 µM (TNF-α production; RAW264.7, 15 h) | activity at 0.1 µM (Rat white adipocytes) | further results
1 | O=C(Nc1ccc(-c2ccc([N+](=O)[O-])cc2)cc1)c1cc([N+](=O)[O-])ccc1Cl [Example 9, N-[4-(4-Nitrophenyl)phenyl)-(2-chloro-5-nitrophenyl)carboxamide] |  |  | inhibition at 1 µM (TNF-α production; 15 hr): 34%
2 | O=C(Nc1ccc(OC(F)(F)F)cc1)c1cc([N+](=O)[O-])ccc1Cl [Example 18, N-(4-Trifluoromethyloxyphenyl)-(2-chloro-5-nitrophenyl)carboxamide] | 16.8% |  | 
3 | O=C(Nc1ccc([N+](=O)[O-])cc1)c1cc([N+](=O)[O-])ccc1Cl [Example 23, N-(4-Nitrophenyl)-(2-chloro-5-nitrophenyl)carboxamide] |  | 57.7% | inhibition at 1 µM (TNF-α production; 15 hr): 24.4%
4 | O=C(Nc1ccc([N+](=O)[O-])cn1)c1cc([N+](=O)[O-])ccc1Cl [Example 24, N-(5-Nitropyridin-2-yl)-(2-chloro-5-nitrophenyl)carboxamide] |  | 59.1% | inhibition at 1 µM (TNF-α production; 15 hr): 30.1%
5 | Cc1ccc(S(=O)(=O)Nc2ccc(NC(=O)c3cc([N+](=O)[O-])ccc3Cl)cc2)cc1 [Example 32, N-[4-(4-Methylbenzene)sulfonylaminophenyl]-(2-chloro-5-nitrophenyl)carboxamide] |  |  | Inhibitory Activity (%) against TNF-α production (TNF-α production; 15 hr): 19.8%
6 | O=C(Nc1nc2ccc([N+](=O)[O-])cc2s1)c1cc([N+](=O)[O-])ccc1Cl [Example 34, N-(6-Nitrobenzothiazol-2-yl)-(2-chloro-5-nitrophenyl)carboxamide] |  |  | inhibition at 1 µM (TNF-α production; 15 hr): 15.2%
7 | O=C(Nc1nc(-c2cccs2)cs1)c1cc([N+](=O)[O-])ccc1Cl [Example 36, N-[4-(2-Thienyl)thiazol-2-yl)-(2-chloro-5-nitrophenyl)carboxamide] | 18% |  | 
8 | O=C(Nc1nc(-c2ccc3ccccc3c2)cs1)c1cc([N+](=O)[O-])ccc1Cl [Example 42, N-[4-(2-Naphthyl)thiazol-2-yl)-(2-chloro-5-nitrophenyl)carboxamide] | 18.8% |  | 
9 | O=C(Nc1nc(-c2ccc(Cl)c(Cl)c2)cs1)c1cc([N+](=O)[O-])ccc1Cl [Example 43, N-[4-(3,4-Dichlorophenyl)thiazol-2-yl]-(2-chloro-5-nitrophenyl)carboxamide] | 17.7% |  | 
10 | O=C(Nc1cnc2ccccc2c1)c1cc([N+](=O)[O-])ccc1Cl [Example 55, N-(3-Quinolinyl)-(2-chloro-5-nitrophenyl)carboxamide] | 15.3% |  | 
11 | O=C(Nc1ccc(Cl)nc1)c1cc([N+](=O)[O-])ccc1Cl [Example 62, N-(6-Chloropyridin-3-yl)-(2-chloro-5-nitrophenyl)carboxamide] | 20.5% | 68.5% | 
12 | Nc1ccc(-c2ccc(NC(=O)c3cc([N+](=O)[O-])ccc3Cl)cc2)cc1 [Example 88, N-[4-(4-Aminophenyl)phenyl]-(2-chloro-5-nitrophenyl)carboxamide mono-hydrochloride] | 28% |  | Rate of Differentiation (%) (Rat white adipocytes; mono-hydrochloride): 63.3%
13 | CS(=O)(=O)Nc1ccc(-c2ccc(NC(=O)c3cc([N+](=O)[O-])ccc3Cl)cc2)cc1 [Example 93, N-[4-[4-(Methanesulfonylamino)phenyl]phenyl]-(2-chloro-5-nitrophenyl)carboxamide] | 15.6% | 62.9% | 
14 | Cc1ccc(S(=O)(=O)Nc2ccc(-c3ccc(NC(=O)c4cc([N+](=O)[O-])ccc4Cl)cc3)cc2)cc1 [Example 94, N-[4-[4-(4-Toluenesulfonylamino)phenyl]phenyl]-(2-chloro-5-nitrophenyl)carboxamide] | 34.8% | 68.8% | 
15 | O=C(Nc1ccc(N2CCCCC2)cc1)c1cc([N+](=O)[O-])ccc1Cl [Example 114, N-[4-(Piperidin-1-yl)phenyl]-(2-chloro-5-nitrophenyl)carboxamide] | 16.8% |  | 
16 | CC(=O)Nc1ccc(-c2ccc(NC(=O)c3cc([N+](=O)[O-])ccc3Cl)cc2)cc1 [Example 118, N-[4-(4-Acetylaminophenyl)phenyl]-(2-chloro-5-nitrophenyl)carboxamide] | 16.4% | 53.6% | 
17 | Cc1ccc2nc(NC(=O)c3cc([N+](=O)[O-])ccc3Cl)sc2c1 [Example 141, N-(6-Methybenzothiazol-2-yl)-(2-chloro-5-nitrophenyl)carboxamide] |  |  | Inhibitory Activity (%) against TNF-α production (TNF-α production; 15 hr): 15.9%
18 | Cc1ccc(C(=O)Nc2nc3ccc(NC(=O)c4cc([N+](=O)[O-])ccc4Cl)cc3s2)cc1 [Example 149, N-[2-(4-Methylbenzoylamino)benzothiazol-6-yl]-(2-chloro-5-nitrophenyl)carboxamide] | 18.8% | 80.3% | 
19 | CCc1ccc(S(=O)(=O)Nc2ccc(NC(=O)c3cc([N+](=O)[O-])ccc3Cl)cc2)cc1 [Example 150, N-[4-(4-Ethylbenzenesulfonylamino)phenyl]-(2-chloro-5-nitrophenyl)carboxamide] | 16.2% |  | 
20 | CC(C)(C)c1cc(NS(=O)(=O)c2ccc(NC(=O)c3cc([N+](=O)[O-])ccc3Cl)cc2)cc(C(C)(C)C)c1O [Example 175, N-[4-[(3,5-di-tert-Butyl-4-hydroxyphenyl)aminosulfonyl]phenyl]-(2-chloro-5-nitrophenyl)carboxamide] | 15.7% |  | 
21 | CCCN(CCC)c1ccc(NC(=O)c2cc([N+](=O)[O-])ccc2Cl)cc1 [Example 182, N-[4-(N,N-Dipropylamino)phenyl]-(2-chloro-5-nitrophenyl)carboxamide] | 32.8% |  | 
22 | O=C(Nc1ccc(N2CCN(C(=O)c3ccccc3)CC2)cc1)c1cc([N+](=O)[O-])ccc1Cl [Example 184, N-[4-(4-Benzoylpiperazin-1-yl)phenyl]-(2-chloro-5-nitrophenyl)carboxamide] | 15% | 46.6% | 
23 | CCCCCCN(CC)c1ccc(NC(=O)c2cc([N+](=O)[O-])ccc2Cl)cc1 [Example 188, N-[4-(N-Ethyl-N-hexylamino)phenyl]-(2-chloro-55 nitrophenyl)carboxamide] | 24.2% |  | 
24 | CC(C)(C)OC(=O)Nc1ccc(-c2csc(NC(=O)c3cc([N+](=O)[O-])ccc3Cl)n2)cc1 [Example 190, N-[4-(4-tert-Butoxycarbonylaminophenyl)thiazol-2-yl]-(2-chloro-5-nitrophenyl)carboxamide] | 33.8% | 64.2% | 
25 | Nc1ccc(-c2ccc(NC(=O)c3cc([N+](=O)[O-])ccc3Cl)cc2)cc1 [Example 192, N-[4-(4-Aminophenyl)phenyl]-(2-chloro-5-nitrophenyl)carboxamide] |  |  | Inhibitory Activity (%) against TNF-α production (TNF-α production; 15 hr, 1 µM): 27.9%; Rate of Differentiation (%) (Rat white adipocytes): 17.6%
26 | CCCN(CCC)c1ccc(-c2ccc(NC(=O)c3cc([N+](=O)[O-])ccc3Cl)cc2)cc1 [Example 194, N-[4-[4-(N,N-Dipropylamino)phenyl]phenyl]-(2-chloro-5-nitrophenyl)carboxamide] | 18.4% | 37.1% | 
27 | CCCCNc1ccc(-c2ccc(NC(=O)c3cc([N+](=O)[O-])ccc3Cl)cc2)cc1 [Example 203, N-[4-[4-(N-Butylamiino)phenyl]phenyl]-(2-chloro-5-nitrophenyl)carboxamide] |  |  | Inhibitory Activity (%) against TNF-α production (TNF-α production; 15 hr): 27.1%; Rate of Differentiation (%) (Rat white adipocytes): 32.6%
28 | O=C(Nc1nc(-c2ccc([N+](=O)[O-])cc2)cs1)c1cc([N+](=O)[O-])ccc1Cl [Example 246, N-[4-(4-Nitrophenyl)thiazol-2-yl]-(2-chloro-5-nitrophenyl)carboxamide] |  |  | inhibition at 1 µM (TNF-α production; 15 hr): 18%
